These are literature values, as cited in US20040170688A1, “Enteric formulation of fluoxetin” (priority 2001, published 2004).

The conditions of the data set: published literature.

`NCCC(Oc1ccc(C(F)(F)F)cc1)c1ccccc1` (centres unmarked) [NorFluoxetin]: the elimination half-life entry was “very long”. Regarding `CNCCC(Oc1ccc(C(F)(F)F)cc1)c1ccccc1` (stereo not drawn) [Fluoxetin, N-Methyl-3-phenyl-3-[(α,α,α-trifluorotolyl)oxyl] propylamine], the elimination half-life result is “very long”.
